According to ChEMBL document CHEMBL3352521, “Two Potent OXE-R Antagonists: Assignment of Stereochemistry” (ACS Med Chem Lett, 2014):

Molecular target: Oxoeicosanoid receptor 1 (Homo sapiens, UniProt Q8TDS5)
Experiment: Antagonist activity at OXE receptor in human neutrophils assessed as inhibition of calcium mobilization by fluorescence assay
Format: functional

Oxoeicosanoid receptor 1, sequence (Q8TDS5 whole entry): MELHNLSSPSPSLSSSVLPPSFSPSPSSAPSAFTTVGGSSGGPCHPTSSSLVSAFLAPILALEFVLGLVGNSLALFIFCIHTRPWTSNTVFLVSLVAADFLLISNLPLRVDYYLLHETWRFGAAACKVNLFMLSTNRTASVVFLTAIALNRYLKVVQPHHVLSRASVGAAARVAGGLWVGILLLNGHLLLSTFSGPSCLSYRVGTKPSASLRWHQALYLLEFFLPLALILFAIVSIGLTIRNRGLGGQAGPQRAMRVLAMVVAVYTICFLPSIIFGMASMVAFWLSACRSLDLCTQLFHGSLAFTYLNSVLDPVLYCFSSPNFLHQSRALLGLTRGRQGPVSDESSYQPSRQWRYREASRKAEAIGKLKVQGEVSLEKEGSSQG

| IC50 | Structure (SMILES) |
| --- | --- |
| 6 nM | CCCCCCc1c(C(=O)C[C@H](C)CC(=O)O)c2cc(Cl)ccc2n1C |
| 2.7 nM | CCCCCCc1c(C(=O)C[C@@H](C)CC(=O)O)c2cc(Cl)ccc2n1C |
